According to patent US5681863A, “Non-metabolizable clomiphene analogs for treatment of tamoxifen-resistant tumors” (Merrell Pharmaceuticals Inc., priority 1994, dated 1997):
Where a name gives a salt, the structure may show the parent alone.

Key:
MCF-7 = test: Antiproliferation test, MCF-7 human breast cancer cells (tamoxifen-sensitive); format: cell-based; settings: for IC50: Homo sapiens, MCF7, 168 h, read-out: TRIPHENYLETHYLENE IC50's AGAINST BREAST CANCER CELLS, IC50, Cell line MCF-7; for IC50 compared with tamoxifen, in words (both cell lines: MCF-7): statement in words
Method: (§1) Antiproliferation test Procedure:
(§2) The tests were conducted in 96-well microtiter plates. 5×10^3 cells were added to each well. Culture medium and drug solutions were added to wells with a Perkin Elmer Cetus PRO/PETTE. The culture medium was IMEM supplemented with 5% fetal bovine serum. Eight drug concentrations were tested, in duplicate, from 0.078 micromolar (μM) to 10 μM. After four days incubation the medium was replaced with fresh medium containing drug, and after a total of seven days, the cell monolayers were fixed with trichloracetic acid and stained with sulforhodamine dye. Absorbances (492 nm) of the extracted dye solutions were measured with a Titertek Multiscan plate reader.

LY2 = test: Antiproliferation test, LY-2 human breast cancer cells (MCF-7 variant resistant to tamoxifen); format: cell-based; settings: for IC50: Homo sapiens, MCF7, 168 h, read-out: TRIPHENYLETHYLENE IC50's AGAINST BREAST CANCER CELLS, IC50, Cell line LY2; for IC50 compared with tamoxifen, in words (both cell lines: LY-2): statement in words
Method: as §1, §2

CCN(CC)CCCc1ccc(C(=C(Cl)c2ccccc2)c2ccccc2)cc1 [MDL 6866F, 1-[p-γ-diethylaminopropyl)phenyl]-1,2-diphenylchloroethylene dihydrogen citrate]
IC50 (MCF-7): 320 nM | IC50 compared with tamoxifen, in words (both cell lines: MCF-7) (MCF-7): lower than the IC50 values of tamoxifen | IC50 (LY2): 1600 nM | IC50 compared with tamoxifen, in words (both cell lines: LY-2) (LY2): lower than the IC50 values of tamoxifen

CCN(CC)CCSc1ccc(C(=C(Cl)c2ccccc2)c2ccccc2)cc1 [MDL 10007F, 2-[p-(2-Chloro-1,2-diphenylvinyl)-phenylthio]triethylamine Dihydrogen Citrate]
IC50 (MCF-7): 370 nM | IC50 compared with tamoxifen, in words (both cell lines: MCF-7) (MCF-7): lower than the IC50 values of tamoxifen | IC50 (LY2): 1000 nM | IC50 compared with tamoxifen, in words (both cell lines: LY-2) (LY2): lower than the IC50 values of tamoxifen

CCN(CC)CCNc1ccc(C(=C(Cl)c2ccccc2)c2ccccc2)cc1 [MDL 10222F, 2-[p-(2-Chloro-1,2-diphenylvinyl)-anilino]triethylamine Dihydrogen Citrate]
IC50 (MCF-7): 700 nM | IC50 compared with tamoxifen, in words (both cell lines: MCF-7) (MCF-7): lower than the IC50 values of tamoxifen | IC50 (LY2): 3800 nM | IC50 compared with tamoxifen, in words (both cell lines: LY-2) (LY2): lower than the IC50 values of tamoxifen
